Data from PMC4691102, “Antioxidant and ACE Inhibitory Bioactive Peptides Purified from Egg Yolk Proteins” (International Journal of Molecular Sciences, 2015).

Columns and labels:
[1] = Ferrous chelating activity assay (ferrozine); details: EDTA 0.2 mg/mL, 10 min room temperature, 563 nm, mean ± SD of three independent experiments
Protocol: The activity of the peptide to chelate ferrous Fe^2+ ions was measured according to the method of Ebrahimzadeh et al.. The reaction mixture contained 0.5 mL of isolated peptides at different concentrations (0.5, 1, 5, 10 and 20 mg/mL), 1.6 mL deionized water and 0.05 mL of 2 mM FeCl2. After 30 s, 0.1 mL of 5 mM ferrozine was added. After 10 min at room temperature, the absorbance of the Fe^2+-ferrozine complex was measured at 563 nm. EDTA (0.2 mg/mL) was also tested as a positive control for comparison. The activity of the peptide to chelate Fe^2+ was calculated as: Chelating ability (%) =AC−AS/AC×100 where AC is the absorbance of the control, using 0.5 mL deionized water instead of sample, AS is the absorbance of the sample or positive control EDTA.

[2] = biological target: angiotensin converting enzyme (ACE) (Homo sapiens, UniProt P12821); assay: ACE inhibitory activity by HPLC (HHL substrate, hippuric acid at 228 nm); details: peptide 10 mg/mL versus captopril 0.5 mg/mL, Dunnett's test, p < 0.05, Figure 8
Chain of angiotensin converting enzyme (ACE) (P12821 30-1306, species assumed): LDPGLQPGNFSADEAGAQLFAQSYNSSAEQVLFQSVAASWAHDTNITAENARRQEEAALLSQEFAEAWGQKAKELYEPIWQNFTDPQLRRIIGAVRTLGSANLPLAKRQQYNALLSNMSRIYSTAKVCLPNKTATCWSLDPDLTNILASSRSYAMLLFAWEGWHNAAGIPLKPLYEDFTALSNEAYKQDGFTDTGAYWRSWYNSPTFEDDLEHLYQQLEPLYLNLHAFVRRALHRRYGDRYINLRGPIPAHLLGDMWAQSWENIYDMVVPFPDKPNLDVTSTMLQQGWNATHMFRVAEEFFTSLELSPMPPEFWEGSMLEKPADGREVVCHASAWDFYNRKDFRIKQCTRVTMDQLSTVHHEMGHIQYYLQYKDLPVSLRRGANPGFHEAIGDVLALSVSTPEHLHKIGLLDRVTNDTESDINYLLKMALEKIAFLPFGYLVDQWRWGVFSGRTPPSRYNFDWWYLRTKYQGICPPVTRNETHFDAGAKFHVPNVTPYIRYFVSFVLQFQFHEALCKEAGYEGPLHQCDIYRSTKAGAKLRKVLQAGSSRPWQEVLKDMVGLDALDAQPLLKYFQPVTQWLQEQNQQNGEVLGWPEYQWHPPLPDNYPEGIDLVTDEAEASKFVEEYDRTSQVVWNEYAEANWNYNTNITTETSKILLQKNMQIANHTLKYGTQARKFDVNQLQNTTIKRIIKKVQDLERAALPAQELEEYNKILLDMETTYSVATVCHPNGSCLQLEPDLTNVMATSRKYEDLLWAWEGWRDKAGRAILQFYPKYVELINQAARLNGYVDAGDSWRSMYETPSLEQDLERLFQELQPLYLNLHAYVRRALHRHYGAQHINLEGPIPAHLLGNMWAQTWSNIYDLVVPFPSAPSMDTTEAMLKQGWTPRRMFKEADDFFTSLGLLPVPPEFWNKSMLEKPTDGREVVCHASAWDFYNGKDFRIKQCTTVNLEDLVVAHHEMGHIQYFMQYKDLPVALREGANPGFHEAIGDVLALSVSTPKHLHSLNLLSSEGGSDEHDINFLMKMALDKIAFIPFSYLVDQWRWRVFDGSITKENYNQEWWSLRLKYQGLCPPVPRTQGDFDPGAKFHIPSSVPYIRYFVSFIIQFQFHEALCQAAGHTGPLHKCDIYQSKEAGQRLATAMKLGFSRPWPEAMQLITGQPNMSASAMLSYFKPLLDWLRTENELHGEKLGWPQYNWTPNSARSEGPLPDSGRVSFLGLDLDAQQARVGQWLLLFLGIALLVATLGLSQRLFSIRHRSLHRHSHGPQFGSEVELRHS
Protocol: The measurement of ACE inhibitory activity was conducted using HPLC in accordance with a modified method of Wu et al. [53]. All samples were prepared with 100 mM borate buffer, containing 300 mM NaCl at pH = 8.3. […] The peptide fractions and HHL were mixed and maintained at 37 °C for 10 min in 2 mL polyethylene microcentrifuge tubes. ACE was maintained at 37 °C for 10 min before the two solutions were combined. The combined mixture was incubated at 37 °C for 30 min with continuous agitation. In order to terminate the reaction, 85 μL of 1 M HCl was added. Samples were analyzed on a C18 column (3.0 mm × 150 mm, 5 μm, phenomenex) and hippuric acid (HA) and HHL were detected at 228 nm using HPLC system (Ultimate 3000 HPLC, Thermo Fisher Scientific Inc., Loughborough, UK). Data were analyzed using integration software (Chromeleon, Thermo Fisher Scientific Inc., Loughborough, UK).

[3] = DPPH radical scavenging activity; details: for Antioxidant activity (DPPH scavenging) of peptide compared with synthetic antioxidant: peptide 10 mg/mL versus 0.2 mg/mL BHT (Figure 7), abstract prints BHA; for DPPH Scavenging activity: standard 0.2 mg/mL, 60 min, room temperature, dark, 517 nm, mean ± SD of three independent experiments
Protocol: The method used was in accordance with Bersuder et al. using the synthetic free radical DPPH. Briefly, a volume of 500 μL of selected fractions at different concentrations (0.5, 1, 5, 10 and 20 mg/mL) was mixed with 500 μL of 99.5% ethanol and 125 μL of 0.02% w/v DPPH prepared previously in 99.5% ethanol. The mixture was shaken vigorously then kept at room temperature in the dark. After 60 min, the color reduction of the DPPH substrate was measured at an absorbance of 517 nm. Trolox and BHT (both used at concentration 0.2 mg/mL) were also tested as positive controls for comparison. The DPPH radical scavenging activity was calculated as follows: Radical scavenging activity (%)=AC−AS/AC×100 where AC is the absorbance for negative control using 500 μL deionized water instead of sample, AS is the absorbance of the sample or positive controls (trolox/BHT). A lower absorbance of the reaction mixture indicated a higher DPPH radical-scavenging activity.

[4] = Lipid oxidation in linoleic acid model system, ferric thiocyanate (FTC) method; details: positive control 0.2 mg/mL; after four days incubation at 40 °C; 500 nm; mean of three independent experiments
Protocol: The inhibition of lipid peroxidation by the EYPH fractions was measured using linoleic acid oxidized as described below. The degree of oxidation was measured using (FTC) and (TBARS) methods. In order to prepare the reaction mixture, 50 mg of each sample was dissolved individually with 10 mL absolute ethanol, 0.13 mL linoleic acid, 4.87 mL distilled water and 10 mL 50 mM sodium phosphate buffer (pH 7). Samples were homogenized by a sonicator (Labsonic® M, B. Braun Biotech International, Melsungen, Germany). The tubes were then sealed tightly with silicone rubber caps and kept in the dark at 40 °C in an oven. […] A negative control was prepared in the same manner using distilled water in place of egg yolk hydrolysates. […] After exactly 3 min, the absorbance of the resulting ferric thiocyanate solution was read at 500 nm using a spectrophotometer (Kontron Instrument UNIKON 860, Cambridge, UK). […] The absorbance of the upper layer was measured at 532 nm using a spectrophotometer (Kontron Instrument UNIKON 860) Malonaldehyde standard curve was prepared using 1,1,3,3-tetramethoxypropane and TBARS were expressed as μg of malonaldehyde/mL. The percentage (%) of lipid oxidation inhibition was calculated according to the following formula: Lipid oxidation inhibition (%)=Absorbance of control − Absorbance of sample/Absorbance of control×100

[5] = Lipid oxidation in linoleic acid model system, TBARS method; details: positive control 0.2 mg/mL; after four days incubation at 40 °C; 532 nm; mean of three independent experiments
Protocol: The inhibition of lipid peroxidation by the EYPH fractions was measured using linoleic acid oxidized as described below. The degree of oxidation was measured using (FTC) and (TBARS) methods. In order to prepare the reaction mixture, 50 mg of each sample was dissolved individually with 10 mL absolute ethanol, 0.13 mL linoleic acid, 4.87 mL distilled water and 10 mL 50 mM sodium phosphate buffer (pH 7). Samples were homogenized by a sonicator (Labsonic® M, B. Braun Biotech International, Melsungen, Germany). The tubes were then sealed tightly with silicone rubber caps and kept in the dark at 40 °C in an oven. […] A negative control was prepared in the same manner using distilled water in place of egg yolk hydrolysates. The commercial antioxidants, 0.2 mg/mL of BHT and trolox were also used as positive controls. […] The absorbance of the upper layer was measured at 532 nm using a spectrophotometer (Kontron Instrument UNIKON 860) Malonaldehyde standard curve was prepared using 1,1,3,3-tetramethoxypropane and TBARS were expressed as μg of malonaldehyde/mL. The percentage (%) of lipid oxidation inhibition was calculated according to the following formula: Lipid oxidation inhibition (%)=Absorbance of control − Absorbance of sample/Absorbance of control×100

[6] = Hydroxyl radical scavenging activity (HRSA) assay; details: standard 0.2 mg/mL, 37 °C 1 h, pH 7.4, 532 nm, mean ± SD of three independent experiments
Protocol: The HRSA assay was performed as described by Wu et al.. The reaction mixture consisted of 0.1 mL of 10 mM FeSO4, 0.1 mL of 10 mM EDTA, 0.5 mL of 10 mM α-deoxyribose, 0.9 mL sodium phosphate buffer pH 7.4, and 0.2 mL of peptides at different concentrations (0.5, 1, 5, 10 and 20 mg/mL). All reagents were then thoroughly mixed in a tube and 0.2 mL of 10 mM hydrogen peroxide was added. The reaction mixture was then incubated at 37 °C for 1 h. Following incubation, 1 mL of 2.8% TCA and 1 mL of 1.0% TBA were added to the test tubes, and the contents boiled for 15 min. After cooling at room temperature, the absorbance of the mixture was measured at 532 nm. Trolox and BHT (both used at concentration 0.2 mg/mL) were also tested as positive controls for comparison. The HRSA was evaluated as a percentage of α-deoxyribose oxidation inhibition by the hydroxyl radical and calculated as follows: HRSA (%)=AC−AS/AC×100 where AC is the absorbance for negative control using 500 μL deionized water instead of sample, AS is the absorbance of the sample or positive controls (trolox/BHT).

[7] = Superoxide anion scavenging activity (pyrogallol autoxidation); details: standard 0.2 mg/mL, Tris-HCl pH 8.2, 25 °C, 320 nm, mean ± SD of three independent experiments
Protocol: In this assay, the alkaline condition enhances the autoxidation of pyrogallol to produce a superoxide anion, which, in turn, accelerates the autoxidation process by autocatalysis. The autoxidation of a pyrogallol method described by Marklund and Marklund was applied to measure the superoxide anion scavenging power of egg yolk peptides. The reaction mixture consisted of 1.0 mL of peptides sample at different concentrations ([…], 5.0, 10 and 20 mg/mL) and 1.8 mL of 50 mM Tris-HCl buffer, previously adjusted to pH 8.2. The mixture was incubated at 25 °C for 20 min. Then, 40 μL of 45 mM pyrogallol (prepared previously in 10 mM HCl) was added. The absorbance of the reaction mixture was measured at 320 nm immediately after adding pyrogallol at 1 min intervals up to 4 min. Trolox and BHT (both used at a concentration of 0.2 mg/mL) were also tested as positive controls for comparison.

Molecule: O=C(O)CN(CCN(CC(=O)O)CC(=O)O)CC(=O)O [EDTA]
- Fe2+ chelating activity [1]: 97.54% ± 1.79%

Molecule: YPSPV
- ACE inhibitory activity of synthesized peptide compared with captopril [2]: higher ACE inhibitory activity compared with captopril

Molecule: SDNRNQGY
- ACE inhibitory activity of synthesized peptide compared with captopril [2]: not significantly different from that of the positive control captopril

Molecule: KLSDW
- Antioxidant activity (DPPH scavenging) of peptide compared with synthetic antioxidant [3]: not significantly different from the synthetic BHA antioxidant

Molecule: Cc1cc(C(C)(C)C)c(O)c(C(C)(C)C)c1 [BHT, butylated hydroxyltoluene]
- Lipid Oxidation (%), FTC method [4]: 23.3%
- Lipid Oxidation (%), TBARS method [5]: 26.1%
- DPPH Scavenging activity [3]: 23.6%
- DPPH Scavenging activity ([3]; SD): 23.60% ± 1.66%
- Hydroxyl radical scavenging activity [6]: 58.97% ± 1.02%
- Superoxide anion scavenging activity [7]: 67.45% ± 1.67%

Molecule: Cc1c(C)c2c(c(C)c1O)CCC(C)(C(=O)O)O2 (centres unmarked) [Trolox, trolox]
- Lipid Oxidation (%), FTC method [4]: 32.2%
- Lipid Oxidation (%), TBARS method [5]: 28.7%
- DPPH Scavenging activity [3]: 38.5%
- DPPH Scavenging activity ([3]; SD): 38.46% ± 1.43%
- Hydroxyl radical scavenging activity [6]: 70.03% ± 3.48%
- Superoxide anion scavenging activity [7]: 63.48% ± 1.63%

Molecule: WYGPD
- Antioxidant activity (DPPH scavenging) of peptide compared with synthetic antioxidant [3]: not significantly different from the synthetic BHA antioxidant
